The nature of data set [1]: in vivo. Set-up: species or system Sprague Dawley rats. Conditions: rat. As to the method:
Prior to the testing of a peptide batch, its purity (HPLC-UV) was determined. Dose was corrected for presence of salts, solvent and purity. Bioanalytical screening method for quantification of peptides in rat: Sprague Dawley rats were dosed with study peptide at a dose of 1 mg/kg intravenously (i.v.) or 3 mg/kg subcutaneously (s.c.) as a solution in PBS (0.2 mg/ml and 0.6 mg/ml respectively). Blood samples were collected after: 0.083, 0.25, 0.5, 1, 2, 4, 8, 24, 48 and 72 h (i.v. route) and 0.25, 0.5, 1, 2, 4, 6, 8, 10, 24, 48 and 72 h (s.c route) post application. Plasma samples were analyzed after protein precipitation via liquid chromatography mass spectrometry (LC/MS). PK parameters and half-life were calculated using Phoenix 64 (WinNonlin 6.4)-Pharsight (Certara™) (non-compartment model). Values below the limit of quantification (BLQ) were replaced by zero for subsequent calculations and PK analysis. T½: in-vivo half-life, time required for test compound plasma concentration to be divided by two during the PK experiment. C0: Extrapolated test compound plasma concentration at t=0 time point (i.v. route). Cmax: maximal test compound plasma concentration at the indicated time point (s.c. route). Tmax: Time point where Cmax was attained. F %: s.c. vs i.v. bioavailability, dose-corrected area under curve (AUC) s.c. route divided by AUC i.v.

A short description of data set [2]: Stability in human plasma. Type of data set: in vitro ADME. The following applies: for Human Plasma stability % remaining: T = 0, 37° C., 5 μM. On the procedure: (§1) Prior to the testing of stability in plasma (or blood) of a peptide batch, its purity (HPLC-UV) was determined.
(§2) Rat and Human plasma: anti-coagulant sodium or lithium heparin.
(§3) 100 μM solution of study compound in 50 mM phosphate buffer pH 7.4.
(§4) 950 μL plasma (or blood) was pre-incubated for 5 min at 37° C. 50 μL of compound stock solution was added. Final compound concentration=5 μM. Vortex and transfer 150 μL plasma (or blood) into an Eppendorf for each time point. The time points […] were carried out in duplicate for each species.
(§5) After incubation, 150 μL plasma (or blood) was extracted with 600 μL Acetonitrile containing 1% TFA. Said mixture was then vortexed and centrifuged 10 min at 14600 rpm. 200 μL supernatant was dried under N2. Sample was then reconstituted in 200 μL of H2O/CH3CN 98/2+0.1% FA+50 ng/ml Labetalol and analyzed using the analytical system used in solubility and stability studies.
(§6) For determination of the amount of the remaining peptide, the peak areas of the target compound at t0 and each time point […] were compared, resulting in “% remaining peptide”, following the equation: % remaining peptide=[(peak area peptide time)×100]/peak area peptide t0. The stability was expressed as “% remaining peptide”.

The nature of data set [3]: Stability in rat plasma. Type of data set: in vitro ADME. Conditions: for Rat plasma stability % remaining: T = 0, 37° C., 5 μM. On the procedure: as §1, §2, §3, §4, §5, §6
The target in data set [4] is T1, RXFP1 (Homo sapiens, UniProt Q9HBX9).
T1 construct: OVCAR5 cells expressing endogenous RXFP1; endogenous in cells; host or cells: OVCAR5
T1 sequence (Q9HBX9 1-757): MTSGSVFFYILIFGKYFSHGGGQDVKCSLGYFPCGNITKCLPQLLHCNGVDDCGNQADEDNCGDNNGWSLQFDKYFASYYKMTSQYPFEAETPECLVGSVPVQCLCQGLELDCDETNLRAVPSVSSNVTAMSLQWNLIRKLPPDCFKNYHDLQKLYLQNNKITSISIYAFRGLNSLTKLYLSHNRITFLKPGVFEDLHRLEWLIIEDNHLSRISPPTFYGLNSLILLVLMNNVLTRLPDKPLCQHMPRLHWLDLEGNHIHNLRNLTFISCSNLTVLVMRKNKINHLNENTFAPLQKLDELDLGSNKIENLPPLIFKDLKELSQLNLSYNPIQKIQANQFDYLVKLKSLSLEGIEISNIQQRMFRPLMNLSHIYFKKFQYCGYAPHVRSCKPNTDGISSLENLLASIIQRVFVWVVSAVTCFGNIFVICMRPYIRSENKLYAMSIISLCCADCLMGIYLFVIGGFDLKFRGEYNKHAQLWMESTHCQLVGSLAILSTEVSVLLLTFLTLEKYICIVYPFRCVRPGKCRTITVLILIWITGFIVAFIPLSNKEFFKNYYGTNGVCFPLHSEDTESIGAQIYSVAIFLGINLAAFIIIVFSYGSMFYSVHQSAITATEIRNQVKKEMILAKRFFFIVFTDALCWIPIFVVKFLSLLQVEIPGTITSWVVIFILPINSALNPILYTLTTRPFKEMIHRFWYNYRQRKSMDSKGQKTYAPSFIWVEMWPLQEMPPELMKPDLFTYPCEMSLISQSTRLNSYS
Nature of the data set: OVCAR5 cAMP assay (HTRF). The following applies: for EC50: OVCAR 5 cells expressing endogenous RXFP1, cAMP readout; for Emax: OVCAR 5 cells, maximal cAMP relative to H2-relaxin. It is filed as cell-based. The essentials:
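Endogenous RXFP1 in OVCAR5 cells, pretreated 40 min at 37° C with 1 mM IBMX, then exposed to increasing peptide concentrations in serum-free medium for 30 min at 37° C. cAMP read by HTRF; EC50 by variable-slope sigmoidal fit, Emax as % of H2-relaxin maximal cAMP in same run.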
In general terms: Changes in cAMP serve as a functional read-out for many G protein-coupled receptors.

Data set [5] is described as follows: Solubility testing in buffer. Conditions: target solubility 10.0 mg/ml. It is filed as physicochemical.
Setting [6] is: acetate buffer 50 mM pH 4.5, read-out: Solubility Acetate buffer pH 4.5.
The mark [7] stands for this setting: phosphate buffer 50 mM pH 7.4, read-out: Solubility phosphate buffer pH 7.4.

In brackets after ≈: the same amount, converted by molar mass. Like-named read-outs stand apart in the source and are kept apart here. Starred links: 1 amine or outer side, 2 acyl side, 3 side chain; linkers in the order of their positions; H or OH if unused. Non-standard residues stand in square brackets, D forms with d. Residues, ends and D or L forms follow the SMILES beside them. Groups on a side chain read outwards from the residue. *: point of attachment. X5 = CCCCCCCCCCCCCCCC(=O)N[C@@H](CCC(=O)N[C@@H](CCC(=O)N[C@@H](CCC(=O)NCCCOCCOCCOCCCNC(=O)CCC(=O)NCCCOCCOCCOCCCNC(=O)CCC(=O)NCCCOCCOCCOCCCNC(=O)CCC(=O)NCCCOCCOCCOCCCN*)C(=O)O)C(=O)O)C(=O)O; X1 = CCCCCCCCCCCCCCCC(=O)N[C@@H](CCC(=O)N[C@@H](CCC(=O)N[C@@H](CCC(=O)NCCCOCCOCCOCCCNC(=O)CCC(=O)NCCCOCCOCCOCCCNC(=O)CCC(=O)NCCCOCCOCCOCCCN*)C(=O)O)C(=O)O)C(=O)O; Suc = O=C(CCC(=O)[*:2])[*:1]; Aib = CC(C)(N)C(=O)O

For “H2-Relaxin: 6-kDa peptidic hormone of 53 amino acids; A chain (SEQ ID NO: 100) and B chain (SEQ ID NO: 101) cross-linked by disulfide bonds”, in data set [1] (iv, 1 mg/kg), the C0 stood at 870 nM and the “T½ (h), in-vivo half-life” value was 0.46 h.

For the molecule “H-VIKLSGRELVRAQIAISGMSTWSKRSL-NH2 [B7-33 C11.23S, reference compound]”, the “Human Plasma stability % remaining” value in data set [2] was 100%. Further, the “Rat plasma stability % remaining” value in data set [3] was 100%.

As to “Ac-VIKLSGRELVRAQIAISGMSTWSKKKK-NH2 [KKKK(AcB7-29 C11.23S), reference compound]”, in data set [2], the “Human Plasma stability % remaining” value is given as 100%. Besides, the “Rat plasma stability % remaining” value in data set [3] is listed as 100%.

Take “Ac-VIKLSGRELVRAQIAISGMSTWSKRSL-NH2 [AcB7-33 C11.23S, reference compound]”: the “Human Plasma stability % remaining” value in data set [2] turned out to be 100%. Besides, the “Rat plasma stability % remaining” value in data set [3] is given as 100%.

In the case of `CCCCCCCCCCCCCCCC(=O)N[C@@H](CCC(=O)N[C@@H](CCC(=O)N[C@@H](CCC(=O)NCCCOCCOCCOCCCNC(=O)CCC(=O)NCCCOCCOCCOCCCNC(=O)CCC(=O)NCCCOCCOCCOCCCNC(=O)CCC(=O)NCCCC[C@H](NC(=O)CNC(=O)[C@H](CCC(=O)O)NC(=O)C(C)(C)NC(=O)C(C)(C)NC(=O)[C@@H](NC(=O)[C@H](CCCCNC(C)=O)NC(=O)[C@H](C)NC(=O)[C@H](CCCNC(=N)N)NC(=O)[C@@H](NC(=O)[C@H](CCCNC(=N)N)NC(=O)[C@H](CCC(=O)O)NC(=O)[C@H](CCCNC(=N)N)NC(=O)CNC(=O)[C@H](CCC(=O)O)NC(=O)[C@H](CC(C)C)NC(C)=O)C(C)C)[C@@H](C)CC)C(=O)N[C@@H](CO)C(=O)N[C@H](C(=O)N[C@@H](Cc1c[nH]c2ccccc12)C(=O)N[C@@H](CO)C(=O)NC(C)(C)C(=O)N[C@@H](CCCNC(=N)N)C(=O)N[C@@H](CCCNC(=N)N)C(=O)N[C@@H](CCCCNC(C)=O)C(N)=O)[C@@H](C)O)C(=O)O)C(=O)O)C(=O)O` [compound 55] (Ac-LEGRERVRAK(Ac)I[Aib][Aib]EGK([Suc-X1])STWS[Aib]RRK(Ac)-NH2), in data set [4], the EC50 (commonly the concentration giving half of the maximal effect) amounted to 0.18 nM and the maximal effect (Emax) (usually the maximal effect, on the per cent scale that the assay sets) came to 93%. The solubility (as a rule, how much of the substance goes into solution per volume) in data set [5] (setting [6]) was found to be 9260 µg/mL (≈ 2080 µM). The solubility in data set [5] (setting [7]) stood at 8840 µg/mL (≈ 1980 µM). Further, in data set [1] (Sprague Dawley, iv, 1 mg/kg), the C0 stood at 4910 nM and the half-life (in general, the time in which the quantity being followed falls by half) is 4.89 h. The bioavailability (usually the share of a dose that reaches the circulation, judged against a reference dose that is usually intravenous) in data set [1] (Sprague Dawley, sc) came to 65%. In data set [1] (Sprague Dawley, sc, 3 mg/kg), the highest concentration (Cmax) – broadly, the maximum level reached in the sampled fluid or tissue – was 2070 nM and the Tmax (in general, the time from dosing to the highest level) stood at 6 h.

In data set [4], `CCCCCCCCCCCCCCCC(=O)N[C@@H](CCC(=O)N[C@@H](CCC(=O)N[C@@H](CCC(=O)NCCCOCCOCCOCCCNC(=O)CCC(=O)NCCCOCCOCCOCCCNC(=O)CCC(=O)NCCCOCCOCCOCCCNC(=O)CCC(=O)NCCCC[C@H](NC(=O)CNC(=O)[C@H](CCC(=O)O)NC(=O)C(C)(C)NC(=O)C(C)(C)NC(=O)[C@@H](NC(=O)[C@H](CCCCNC(C)=O)NC(=O)[C@H](C)NC(=O)[C@H](CCCNC(=N)N)NC(=O)[C@@H](NC(=O)[C@H](CCCCN)NC(=O)[C@H](CCC(=O)O)NC(=O)[C@H](CCCNC(=N)N)NC(=O)CNC(=O)[C@H](CCC(=O)O)NC(=O)[C@H](CC(C)C)NC(C)=O)C(C)C)[C@@H](C)CC)C(=O)N[C@@H](CO)C(=O)N[C@H](C(=O)N[C@@H](Cc1ccccc1)C(=O)N[C@@H](CO)C(=O)N[C@@H](CCCCN)C(=O)N[C@@H](CCCNC(=N)N)C(=O)N[C@@H](C)C(=O)N[C@@H](CCCCNC(C)=O)C(N)=O)[C@@H](C)O)C(=O)O)C(=O)O)C(=O)O` [compound 13] (Ac-LEGREKVRAK(Ac)I[Aib][Aib]EGK([Suc-X1])STFSKRAK(Ac)-NH2) gave an EC50 of 2.12 nM and an Emax of 91%. For the same molecule, in data set [2], the “Human Plasma stability % remaining” value was found to be 100%. In addition, in data set [2] (human, plasma (sodium or lithium heparin), 1 h, 37° C.), the amount remaining (as a rule, what is left of the initial amount, in per cent) at 1 h, 5 μM stood at 91%. In data set [2] (human, plasma (sodium or lithium heparin), 4 h, 37° C.), this molecule yielded an amount remaining at 4 h, 5 μM of 89%. The solubility in data set [5] (setting [7]) worked out at 7680 µg/mL (≈ 1770 µM). In addition, the “Rat plasma stability % remaining” value in data set [3] turned out to be 89%. Further, the amount remaining at 1 h, 5 μM in data set [3] (rat, plasma (sodium or lithium heparin), 1 h, 37° C.) amounted to 100%.

In data set [4], `CCCCCCCCCCCCCCCC(=O)N[C@@H](CCC(=O)N[C@@H](CCC(=O)N[C@@H](CCC(=O)NCCCOCCOCCOCCCNC(=O)CCC(=O)NCCCOCCOCCOCCCNC(=O)CCC(=O)NCCCOCCOCCOCCCNC(=O)CCC(=O)NCCCOCCOCCOCCCNC(=O)CCC(=O)NCCCC[C@H](NC(=O)CNC(=O)[C@H](CCC(=O)O)NC(=O)C(C)(C)NC(=O)C(C)(C)NC(=O)[C@@H](NC(=O)[C@H](CCCCNC(C)=O)NC(=O)[C@H](C)NC(=O)[C@H](CCCNC(=N)N)NC(=O)[C@@H](NC(=O)[C@H](CCCNC(=N)N)NC(=O)[C@H](CCC(=O)O)NC(=O)[C@H](CCCNC(=N)N)NC(=O)CNC(=O)[C@H](CCC(=O)O)NC(=O)[C@H](CC(C)C)NC(C)=O)C(C)C)[C@@H](C)CC)C(=O)N[C@@H](CO)C(=O)N[C@H](C(=O)N[C@@H](Cc1c[nH]c2ccccc12)C(=O)N[C@@H](CO)C(=O)NC(C)(C)C(=O)N[C@@H](CCCNC(=N)N)C(=O)N[C@@H](CCCNC(=N)N)C(=O)N[C@@H](CCCCNC(C)=O)C(N)=O)[C@@H](C)O)C(=O)O)C(=O)O)C(=O)O` [compound 75] (Ac-LEGRERVRAK(Ac)I[Aib][Aib]EGK([Suc-X5])STWS[Aib]RRK(Ac)-NH2) returned an EC50 of 0.19 nM and a maximum response (Emax) of 97%. Moreover, the solubility in data set [5] (setting [6]) came out at 8580 µg/mL (≈ 1800 µM). In addition, the solubility in data set [5] (setting [7]) was found to be 9560 µg/mL (≈ 2010 µM).

The values above are taken from US11725036B2, “Modified lipidated relaxin B chain peptides and their therapeutic use” (Sanofi, priority 2018, dated 2023).
